{"source": "patent EP4242199A1", "about": "(priority 2022, dated 2023)", "key": {"[1]": {"system": "Cercospora sojina", "type": "cell-based"}, "[2]": {"system": "Sclerotinia sclerotiorum", "type": "cell-based"}, "[3]": {"system": "Qol (G143A) resistant isolate of Septoria tritici", "assay": "Microtest: activity against resistant isolate of Septoria tritici (SEPTTR res)", "type": "cell-based", "settings": "relative growth vs active compound-free control (100%), 405 nm, 7 days after inoculation, 18°C"}, "[4]": {"system": "Septoria tritici", "assay": "Microtest: activity against wheat leaf blotch pathogen Septoria tritici (SEPTTR)", "type": "cell-based", "settings": "relative growth vs active compound-free control (100%), 405 nm, 7 days after inoculation, 18°C"}, "[5]": {"system": "Pyricularia oryzae", "type": "cell-based", "settings": "PYRIOR, relative growth vs active compound-free control (100%), 405 nm, 7 days after inoculation, 18°C"}, "[6]": {"system": "Puccinia recondita", "type": "in vivo", "settings": "for PUCCRT Disease level (%) K4 at 63 ppm: wheat, curative spray 4 days after inoculation, % diseased leaf area, untreated 85"}, "[7]": {"system": "Puccinia recondita", "type": "in vivo", "settings": "for PUCCRT Disease level (%) P1 at 63 ppm: wheat, preventative spray 1 day before inoculation, % diseased leaf area, untreated 82"}, "[8]": {"system": "Qol (F129L) resistant isolate of Alternaria solani", "assay": "Microtest: activity against resistant isolate of Alternaria solani (ALTESO res)", "type": "cell-based", "settings": "relative growth vs active compound-free control (100%), 405 nm, 7 days after inoculation, 18°C"}, "[9]": {"system": "Qol (F129L) resistant isolate of Pyrenophora teres", "assay": "Microtest: activity against resistant isolate of net blotch pathogen Pyrenophora teres (PYRNTE res)", "type": "cell-based", "settings": "relative growth vs active compound-free control (100%), 405 nm, 7 days after inoculation, 18°C"}, "[10]": {"system": "Alternaria solani", "type": "cell-based"}, "[11]": {"system": "Phytophthora infestans", "type": "cell-based", "settings": "PHYTIN, relative growth vs active compound-free control (100%), 405 nm, 7 days after inoculation, 18°C"}, "[12]": {"system": "Leptosphaeria nodorum", "assay": "Microtest: activity against Leptosphaeria nodorum causing wheat leaf spots (LEPTNO)", "type": "cell-based", "settings": "relative growth vs active compound-free control (100%), 405 nm, 7 days after inoculation, 18°C"}, "[13]": {"system": "Colletotrichum orbiculare", "assay": "Microtest: activity against anthracnose pathogen Colletotrichum orbiculare (COLLLA)", "type": "cell-based", "settings": "relative growth vs active compound-free control (100%), 405 nm, 7 days after inoculation, 18°C"}, "[14]": {"system": "Phakopsora pachyrhizi", "assay": "Greenhouse: protective control of soybean rust on soybeans caused by Phakopsora pachyrhizi (PHAKPA P2)", "type": "in vivo", "settings": "spray 2 days before inoculation, F129L strain, % diseased leaf area, untreated 97"}, "[15]": {"system": "Phakopsora pachyrhizi", "assay": "Greenhouse: protective control of soybean rust on soybeans caused by Phakopsora pachyrhizi (PHAKPA P6)", "type": "in vivo", "settings": "spray six days before inoculation, F129L strain, % diseased leaf area, untreated 74"}, "[16]": {"settings": "SCLESC, relative growth vs active compound-free control (100%), 405 nm, 7 days after inoculation, 18°C"}, "[17]": {"settings": "ALTESO, relative growth vs active compound-free control (100%), 405 nm, 7 days after inoculation, 18°C"}}, "note": "Like-named read-outs stand apart in the source and are kept apart here."}
{"compound": "C/C(C#Cc1ccc(Cl)cc1)=N\\OCc1ccccc1-n1nnn(C)c1=O", "note": "[Compound 1, 1-[2-[[(E)-[3-(4-Chlorophenyl)-1-methyl-prop-2-ynylidene]amino]oxymethyl]phenyl]-4-methyl-tetrazol-5-one]", "values": [{"measurement": "Growth (%) at 125 ppm", "setting": "[1]", "result": 0, "unit": "%"}, {"measurement": "Growth (%) at 125 ppm", "setting": "[2]", "result": 11, "unit": "%"}, {"measurement": "Growth (%) at 125 ppm", "setting": "[3]", "result": 13, "unit": "%"}, {"measurement": "Growth (%) at 125 ppm", "setting": "[4]", "result": 5, "unit": "%"}, {"measurement": "Growth (%) at 125 ppm", "setting": "[5]", "result": 0, "unit": "%"}]}
{"compound": "COc1nn(C)c(=O)n1-c1ccccc1CO/N=C(\\C)C#Cc1ccc(Cl)cc1", "note": "[Compound 2, 4-[2-[[(E)-[3-(4-Chlorophenyl)-1-methyl-prop-2-ynylidene]amino]oxymethyl]phenyl]-5-methoxy-2-methyl-1,2,4-triazol-3-one]", "values": [{"measurement": "PUCCRT Disease level (%) K4 at 16 ppm", "setting": "[6]", "result": 30, "unit": "%"}, {"measurement": "PUCCRT Disease level (%) P1 at 16 ppm", "setting": "[7]", "result": 11, "unit": "%"}, {"measurement": "Growth (%) at 125 ppm", "setting": "[5]", "result": 16, "unit": "%"}]}
{"compound": "COc1nn(C)c(=O)n1-c1ccccc1CO/N=C(\\C)C#Cc1cccc(Cl)c1", "note": "[Compound 4, 4-[2-[[(E)-[3-(3-Chlorophenyl)-1-methyl-prop-2-ynylidene]amino]oxymethyl]phenyl]-5-methoxy-2-methyl-1,2,4-triazol-3-one]", "values": [{"measurement": "Growth (%) at 125 ppm", "setting": "[8]", "result": 16, "unit": "%"}, {"measurement": "Growth (%) at 125 ppm", "setting": "[2]", "result": 17, "unit": "%"}, {"measurement": "Growth (%) at 125 ppm", "setting": "[9]", "result": 0, "unit": "%"}, {"measurement": "Growth (%) at 125 ppm", "setting": "[3]", "result": 0, "unit": "%"}, {"measurement": "Growth (%) at 125 ppm", "setting": "[10]", "result": 4, "unit": "%"}, {"measurement": "Growth (%) at 125 ppm", "setting": "[11]", "result": 0, "unit": "%"}, {"measurement": "Growth (%) at 125 ppm", "setting": "[4]", "result": 0, "unit": "%"}, {"measurement": "PUCCRT Disease level (%) K4 at 16 ppm", "setting": "[6]", "result": 31, "unit": "%"}, {"measurement": "Growth (%) at 125 ppm", "setting": "[12]", "result": 7, "unit": "%"}, {"measurement": "PUCCRT Disease level (%) P1 at 16 ppm", "setting": "[7]", "result": 13, "unit": "%"}, {"measurement": "Growth (%) at 125 ppm", "setting": "[5]", "result": 0, "unit": "%"}]}
{"compound": "(E)-4-(3-Chlorophenyl)-N-[[2-[(E)-C-(1,4,2-dioxazin-3-yl)-N-methoxy-carbonimido-yl]phenyl]methoxy]but-3-yn-2-imine [Compound 8]", "values": [{"measurement": "Growth (%) at 125 ppm", "setting": "[13]", "result": 0, "unit": "%"}, {"measurement": "PHAKPA Disease level (%) P2 at 63 ppm", "setting": "[14]", "result": 7, "unit": "%"}, {"measurement": "Growth (%) at 125 ppm", "setting": "[2]; [16]", "result": 19, "unit": "%"}, {"measurement": "Growth (%) at 125 ppm", "setting": "[10]; [17]", "result": 2, "unit": "%"}, {"measurement": "Growth (%) at 125 ppm", "setting": "[4]", "result": 0, "unit": "%"}, {"measurement": "PUCCRT Disease level (%) K4 at 63 ppm", "setting": "[6]", "result": 28, "unit": "%"}, {"measurement": "Growth (%) at 125 ppm", "setting": "[12]", "result": 2, "unit": "%"}, {"measurement": "PHAKPA Disease level (%) P6 at 63 ppm", "setting": "[15]", "result": 12, "unit": "%"}, {"measurement": "PUCCRT Disease level (%) P1 at 63 ppm", "setting": "[7]", "result": 0, "unit": "%"}, {"measurement": "Growth (%) at 125 ppm", "setting": "[5]", "result": 0, "unit": "%"}]}
{"compound": "(E)-4-(4-chlorophenyl)-N-[[2-[(E)-C-(1,4,2-dioxazin-3-yl)-N-methoxy-carbonimidoyl]-phenyl]methoxy]but-3-yn-2-imine [Compound 7]", "values": [{"measurement": "Growth (%) at 125 ppm", "setting": "[13]", "result": 0, "unit": "%"}, {"measurement": "PHAKPA Disease level (%) P2 at 63 ppm", "setting": "[14]", "result": 33, "unit": "%"}, {"measurement": "Growth (%) at 125 ppm", "setting": "[2]; [16]", "result": 1, "unit": "%"}, {"measurement": "Growth (%) at 125 ppm", "setting": "[10]; [17]", "result": 1, "unit": "%"}, {"measurement": "Growth (%) at 125 ppm", "setting": "[4]", "result": 0, "unit": "%"}, {"measurement": "PUCCRT Disease level (%) K4 at 63 ppm", "setting": "[6]", "result": 53, "unit": "%"}, {"measurement": "Growth (%) at 125 ppm", "setting": "[12]", "result": 0, "unit": "%"}, {"measurement": "PHAKPA Disease level (%) P6 at 63 ppm", "setting": "[15]", "result": 32, "unit": "%"}, {"measurement": "PUCCRT Disease level (%) P1 at 63 ppm", "setting": "[7]", "result": 13, "unit": "%"}, {"measurement": "Growth (%) at 125 ppm", "setting": "[5]", "result": 0, "unit": "%"}]}
{"compound": "Ethyl N-[2-[[(E)-[3-(3-chlorophenyl)-1-methyl-prop-2-ynylidene]amino]oxymethyl]-phenyl]-N-methoxy-carbamate [Compound 6]", "values": [{"measurement": "Growth (%) at 125 ppm", "setting": "[13]", "result": 0, "unit": "%"}, {"measurement": "PHAKPA Disease level (%) P2 at 63 ppm", "setting": "[14]", "result": 11, "unit": "%"}, {"measurement": "Growth (%) at 125 ppm", "setting": "[2]; [16]", "result": 17, "unit": "%"}, {"measurement": "Growth (%) at 125 ppm", "setting": "[9]", "result": 0, "unit": "%"}, {"measurement": "Growth (%) at 125 ppm", "setting": "[10]; [17]", "result": 0, "unit": "%"}, {"measurement": "Growth (%) at 125 ppm", "setting": "[4]", "result": 0, "unit": "%"}, {"measurement": "PUCCRT Disease level (%) K4 at 63 ppm", "setting": "[6]", "result": 50, "unit": "%"}, {"measurement": "Growth (%) at 125 ppm", "setting": "[12]", "result": 0, "unit": "%"}, {"measurement": "PHAKPA Disease level (%) P6 at 63 ppm", "setting": "[15]", "result": 13, "unit": "%"}, {"measurement": "PUCCRT Disease level (%) P1 at 63 ppm", "setting": "[7]", "result": 7, "unit": "%"}, {"measurement": "Growth (%) at 125 ppm", "setting": "[5]", "result": 0, "unit": "%"}]}
{"compound": "Ethyl N-[2-[[(E)-[3-(4-chlorophenyl)-1-methyl-prop-2-ynylidene]amino]oxymethyl]-phenyl]-N-methoxy-carbamate [Compound 5]", "values": [{"measurement": "Growth (%) at 125 ppm", "setting": "[13]", "result": 0, "unit": "%"}, {"measurement": "PHAKPA Disease level (%) P2 at 63 ppm", "setting": "[14]", "result": 43, "unit": "%"}, {"measurement": "Growth (%) at 125 ppm", "setting": "[2]; [16]", "result": 12, "unit": "%"}, {"measurement": "Growth (%) at 125 ppm", "setting": "[9]", "result": 0, "unit": "%"}, {"measurement": "Growth (%) at 125 ppm", "setting": "[10]; [17]", "result": 10, "unit": "%"}, {"measurement": "Growth (%) at 125 ppm", "setting": "[4]", "result": 0, "unit": "%"}, {"measurement": "PUCCRT Disease level (%) K4 at 63 ppm", "setting": "[6]", "result": 70, "unit": "%"}, {"measurement": "Growth (%) at 125 ppm", "setting": "[12]", "result": 0, "unit": "%"}, {"measurement": "PHAKPA Disease level (%) P6 at 63 ppm", "setting": "[15]", "result": 48, "unit": "%"}, {"measurement": "PUCCRT Disease level (%) P1 at 63 ppm", "setting": "[7]", "result": 10, "unit": "%"}, {"measurement": "Growth (%) at 125 ppm", "setting": "[5]", "result": 0, "unit": "%"}]}
